IC50 data for 20 compounds are collected here from US6372733B1, “Hexahydro-5-imino-1,4-1,4-thiazepine derivatives as inhibitors of nitric oxide synthases” (Merck & Co., Inc., priority 1995, dated 2002).

What all share (format): biochemical
The target of one assay is ncNOS (Homo sapiens, UniProt P29475). Kind of assay: Assay Protocol for NOS Activity: formation of L-[3H]Citrulline from L-[3H]Arginine, ncNOS. As to the method:
(§1) NOS activity is measured as the formation of L-[2,3,4,5-^3H]Citrulline from L-[2,3,4,5-^3H]Arginine. The incubation buffer (100 uL) contained; 100 mM TES, pH 7.5, 5 μM FAD, 5 μM FMN, 10 μM BH4, 0.5 mM NADPH, 0.5 mM DTT, 0.5 mg/mL BSA, 2 mM CaC12, 10 ug/mL calmodulin (bovine), 1 μM L-Arg, 0.2 uCi L-[2,3,4,5-^3H]Arg, and the inhibitor in aqueous DMSO (max. 5%). The reaction is initiated by addition of enzyme. Incubations are performed at room temperature for 30 minutes and stopped by the addition of an equal volume of quenching buffer consisting of 200 mM sodium citrate, pH 2.2, 0.02% sodium azide. Reaction products are separated by passing through a cation exchange resin and quantitated as cpm by scintillation counting.

The next assay deals with ecNOS (Homo sapiens, UniProt P29474). Nature of the assay: Assay Protocol for NOS Activity: formation of L-[3H]Citrulline from L-[3H]Arginine, ecNOS. As to the method:
as §1

A further assay concerns the target iNOS (Homo sapiens, UniProt P35228). Kind of assay: Assay Protocol for NOS Activity: formation of L-[3H]Citrulline from L-[3H]Arginine, iNOS. As to the method:
as §1

The mark [1] stands for this setting: 1 μM L-Arg, room temperature, 30 minutes, read-out: ncNOS (IC50).
[2] abbreviates: 1 μM L-Arg, room temperature, 30 minutes, read-out: ecNOS (IC50).
[3] abbreviates: 1 μM L-Arg, room temperature, 30 minutes, read-out: iNOS (IC50).

Structures can show the parent of a compound that is named as a salt. Where two headings read alike, the source gives them in different places.

As a reminder, the IC50 is the midpoint of a concentration-inhibition curve. `CN1CCN=C(N)CC1` [Example 20, Hexahydro-5-imino-1-methyl-1H-1,4-diazepine Hydrochloride.]: the figures for the IC50 on ncNOS (setting [1]), on ecNOS (setting [2]) and at iNOS (setting [3]) were greater than 50 µM, greater than 50 µM and less than 50 µM, respectively.

Turning to `CCC[C@H]1CSCCC(N)=N1` [Example 18, Hexahydro-5-imino-3(S)-propyl-1,4-thiazepine, Acetic Acid Salt], the IC50 against ncNOS was less than 1 µM; against ecNOS, less than 10 µM; against iNOS, less than 1 µM.

For the compound `CCCC1CSCCC(N)=N1` (stereo not drawn) [Example 4, Hexahydro-5-imino-3-propyl-1,4-thiazepine Hydrochloride], the IC50 is less than 10 µM against ncNOS, less than 50 µM on ecNOS and less than 1 µM against iNOS.

Consider `CCC1CSCCC(N)=N1` (stereo not drawn) [Example 14, Hexahydro-5-imino-3-ethyl-1,4-thiazepine Hydrochloride], for which the IC50 on ncNOS (setting [1]) was less than 10 µM; on ecNOS (setting [2]), less than 50 µM; on iNOS (setting [3]), less than 1 µM.

For `CC(C)=CCC1CSCCC(=N)N1` (stereo not drawn) [Example 9, Hexahydro-5-imino-3-(3-methyl-2-n-butenyl)-1,4-thiazepine Hydrochloride], the results for the IC50 on ncNOS (setting [1]), at ecNOS (setting [2]) and at iNOS (setting [3]) were less than 50 µM, greater than 50 µM and less than 1 µM, respectively.

For `CC(C)CC1CSCCC(N)=N1` (stereo not drawn) [Example 11, Hexahydro-5-imino-3-(2-methyl-propyl)-1,4-thiazepine Hydrochloride], the half-inhibitory concentration (IC50) at ncNOS (setting [1]) was less than 10 µM; on ecNOS (setting [2]), greater than 50 µM; on iNOS (setting [3]), less than 1 µM.

Regarding `CCCCC1CSCCC(N)=N1` (stereo not drawn) [Example 15, Hexahydro-5-imino-3-butyl-1,4-thiazepine. Hydrochloride], the IC50 at ncNOS (setting [1]) is less than 10 µM; on ecNOS (setting [2]), greater than 50 µM; at iNOS (setting [3]), less than 1 µM.

Regarding `NC1=NCCSCC1` [Example 2, Hexahydro-5-imino-1,4-thiazepine Hydrochloride], the figures for the IC50 on ncNOS (setting [1]), on ecNOS (setting [2]) and on iNOS (setting [3]) were less than 10 µM, greater than 10 µM and less than 10 µM, respectively.

On to `NC1=NCCNCC1` [Example 1, Hexahydro-5-imino-(1H-1,4-diazepine Dihydrochloride], for which the IC50 on ncNOS (setting [1]), at ecNOS (setting [2]) and on iNOS (setting [3]) was greater than 50 µM in each case.

As for `CC(C)CC1CSCCNC1=N` (stereo not drawn) [Example 10, Hexahydro-5-imino-6-(2-methyl-propyl)-1,4-thiazepine Hydrochloride], the IC50 at ncNOS (setting [1]) was greater than 50 µM; on ecNOS (setting [2]) it was greater than 50 µM; at iNOS (setting [3]), less than 50 µM.

In the case of `CC1CC(N)=NCCS1` (stereo not drawn) [Example 6, Hexahydro-5-imino-7-methyl-1,4-thiazepine Hydrochloride], the IC50 at ncNOS (setting [1]) is less than 1 µM; on ecNOS (setting [2]) it was less than 10 µM; on iNOS (setting [3]), less than 10 µM.

In the case of `N=C1CCS[C@H]2CCCC[C@@H]2N1` (racemic) [Example 17, (±)-trans-Decahydro-4-imino-benzo[b]-1,4-thiazepine Acetic Acid Salt], the IC50 at ncNOS (setting [1]), on ecNOS (setting [2]) and at iNOS (setting [3]) was greater than 50 µM in each case.

As to `CC(C)=CCC1CSCCNC1=N` (stereo not drawn) [Example 8, Hexahydro-5-imino-6-(3-methyl-2-n-butenyl)-1,4-thiazepine Hydrochloride], the IC50 on ncNOS (setting [1]), on ecNOS (setting [2]) and on iNOS (setting [3]) was greater than 50 µM each time.

With `NC1=NCCOCC1` [Example 3, Hexahydro-5-imino-1,4-oxazepine Hydrochloride.], the IC50 at ncNOS (setting [1]) was less than 10 µM; at ecNOS (setting [2]), less than 50 µM; at iNOS (setting [3]) it was less than 50 µM.

On to `CC1CSCCC(N)=N1` (stereo not drawn) [Example 13, Hexahydro-5-imino-3-methyl-1,4-thiazepine Hydrochloride], for which the IC50 at ncNOS (setting [1]) was less than 10 µM; at ecNOS (setting [2]) it was less than 10 µM; at iNOS (setting [3]) it was less than 1 µM.

With `CC1CSCCN=C1N` (stereo not drawn) [Example 12, Hexahydro-5-imino-6-methyl-1,4-thiazepine Hydrochloride], the IC50 was less than 10 µM on ncNOS (setting [1]), less than 50 µM at ecNOS (setting [2]) and greater than 50 µM on iNOS (setting [3]).

On to `CC1CN=C(N)CCS1` (stereo not drawn) [Example 7, Hexahydro-5-imino-2-methyl-1,4-thiazepine Hydrochloride], for which the IC50 was less than 1 µM at ncNOS (setting [1]), less than 10 µM at ecNOS (setting [2]) and less than 10 µM at iNOS (setting [3]).

In the case of `C=C(C)CC1CSCCC(=N)N1` (stereo not drawn) [Example 16, Hexahydro-5-imino-3-(2-methyl-3-propenyl)-1,4-thiazepine Hydrochloride.], the IC50 at ncNOS (setting [1]) was less than 10 µM; at ecNOS (setting [2]), less than 50 µM; at iNOS (setting [3]), less than 1 µM.

Consider `CCC[C@@H]1CSCCC(=N)N1` [Example 19, Hexahydro-5-imino-3(R)-propyl-1,4-thiazepine Acetic Acid Salt], for which the IC50 on ncNOS was less than 10 µM; on ecNOS it was less than 50 µM; against iNOS, less than 10 µM.

With `CCCC1CSCCNC1=N` (stereo not drawn) [Example 5, Hexahydro-5-imino-6-propyl-1,4-thiazepine Hydrochloride], the IC50 at ncNOS (setting [1]), at ecNOS (setting [2]) and on iNOS (setting [3]) was greater than 50 µM throughout.
